The values below come from patent publication US20070203212A1, “METHOD OF TREATING OSTEOARTHRITIS” (WARNER-LAMBERT COMPANY, priority 2002, published 2007).

For assay [1], the system named is monosodium iodoacetate (MIA)-induced osteoarthritis. Put plainly: MIA rat model, chronic oral b.i.d. dosing: change in hind paw weight distribution (joint function limitation / joint pain). It is filed as in vivo. Particulars: for IJFL (Inhibition of Joint Function Limitation) (% +/− SEM): four week study; for change in hind paw weight distribution: Days 7, 14 and 28 (FIG. 3); for inhibition of change in hind paw weight distribution: 30 mg/kg PO b.i.d. The procedure:
(§1) It should be appreciated that in Biological Methods 1, 2, 4, and 5 below, hind paw weight bearing differentials between the paw of the limb having the control joint (in animals administered test compound vehicle only) and the paw of the limb having the contralateral test joint (in control or inducement animals administered test compound vehicle only and in treatment animals administered test compound dissolved in test compound vehicle) were determined using an incapacitance tester, model 2KG (Linton Instrumentation, Norfolk, United Kingdom). The incapacitance tester has a chamber on top with an outwardly sloping front wall that supports a rat's front limbs, and two weight sensing pads, one for each hind paw, that facilitates this determination. The hind paw weight bearing differentials were expressed in grams and calculated as follows: (the average weight in grams placed on the control limb minus the average weight in grams placed on the contralateral test limb for each of the inducement or treatment animals) minus (the average weight in grams placed on the control limb minus the average weight in grams placed on the contralateral test limb for each of the control animals). All results were statistically analyzed by comparing the average results for an induction or treatment group with the average result for its control group at the same time point using analysis of covariance (“ANCOVA”) followed by the Hoehberg's procedure and those with statistical significance had p<0.05 unless otherwise noted.
Generally, In the MIA Rat model on Day 0, the hind-paw weight differential between the right arthritic joint and the left healthy joint of male Wistar rats (150 g) are determined with an incapacitance tester, model 2KG (Linton Instrumentation, Norfolk, United Kingdom). The incapacitance tester has a chamber on top with an outwardly sloping front wall that supports a rat's front limbs, and two weight sensing pads, one for each hind paw, that facilitates this determination. Then the rats are anesthetized with isofluorine, and the right, hind leg knee joint is injected with 1.0 mg of mono-iodoacetate (“MIA”) through the infrapatellar ligament. Injection of MIA into the joint results in the inhibition of glycolysis and eventual death of surrounding chondrocytes. The rats are further administered either an active compound useful in the invention method, or a pharmaceutically acceptable salt thereof, or vehicle (in the instant case, water) daily for 14 days or 28 days. The substituted dialkyl ether, substituted aryl-alkyl ether, substituted dialkyl thioether, substituted dialkyl ketone, or substituted-alkyl compound useful in the invention method, or a pharmaceutically acceptable salt thereof, is typically administered at a dose of 30 mg of substituted dialkyl ether, substituted aryl-alkyl ether, substituted dialkyl thioether, substituted dialkyl ketone, or substituted-alkyl compound useful in the invention method, or a pharmaceutically acceptable salt thereof, per kilogram of rat per day (30 mg/kg/day), but may be administered at other doses such as, for example, mg/kg/day, 60 mg/kg/day, 90-mg/kg/day, or 100 mg/kg/day according to the requirements of the compound being studied. It is well within the level of ordinary skill in the pharmaceutical arts to determine a proper dosage of an active compound useful in the invention method, or a pharmaceutically acceptable salt thereof, in this model. Administration of the substituted dialkyl ether, substituted aryl-alkyl ether, substituted dialkyl thioether, substituted dialkyl ketone, or substituted-alkyl compound useful in the invention method, or a pharmaceutically acceptable salt thereof, in this model is optionally by oral administration or intravenous administration via an osmotic pump. After 7 and 14 days for a two week study, or 7, 14, and 28 days for a four week study, the hind-paw weight distribution is again determined. […]

For assay [2] the test system is unchanged. Put plainly: MIA rat model, acute single oral dose: change in hind paw weight distribution (joint pain). It is filed as in vivo. Particulars: for shift in weight bearing potential (joint pain) versus pre-dose: 2, 4 and 6 hours post administration. The procedure:
as §1
The rats were anesthetized with 5% volume/volume (“v/v”) isoflurane gas and maintained with 2% v/v isoflurane gas. The anesthetized rats were given a single intra-articular injection of 1 mg of MIA through the infrapatellar ligament of the right knee. MIA was dissolved in physiologic saline and administered in a volume of 50 μL. The contralateral control knee was injected with 50 μL of physiologic saline. Administration of isoflurane gas was discontinued, and the rats became fully conscious about 5 minutes later.
Shifts in hind paw weight distribution from the right to the left hind paws supporting the right (arthritic) and the left (contralateral control) hind leg knee joints were utilized as an index of joint pain and as a measure of compound efficacy. An incapacitance tester (Model 2KG, Linton Instrumentation, UK) was employed for determination of hind paw weight distribution. Each data point is the mean of three readings of 5 seconds duration.
CI-1027 (i.e., 6-(5-carboxy-5-methyl-hexyloxy)-2,2-dimethyl-hexanoic acid, calcium salt) was dissolved in hydroxypropylmethylcellulose (“HPMC”) vehicle (0.05% HPMC+0.2% Tween 80; compound amount was adjusted based on the percent of free acid, i.e., 6-(5-carboxy-5-methyl-hexyloxy)-2,2-dimethyl-hexanoic acid).
[…] Rats were then given a single, 10, 30, or 100 mg/kg, dose of CI-1027 via oral gavage (PO). Changes in hind paw weight distribution were determined 2, 4 and 6 hours post-compound administration.
6-(5-carboxy-5-methyl-hexyloxy)-2,2-dimethyl-hexanoic acid, calcium salt (“CI-1027”) and rofecoxib was tested in the rat MIA model in an acute dosing paradigm as described previously. MIA was injected into the right knee and saline into the left knee of all rats on Day 0. […] Two hours later, the rats were reassessed. The results for inhibition of pain, expressed as a percentage±standard error of the mean, are shown below in Table 5. The percent inhibition of pain was determined as described above in Biological Method 1. […] N=8 rats per group.

Marks after values point to notes of the source that are not given here.

Turning to `CC(C)(CCCCOCCCCC(C)(C)C(=O)[O-])C(=O)[O-].[Ca+2]` [CI-1027, 6-(5-carboxy-5-methyl-hexyloxy)-2,2-dimethyl-hexanoic acid, calcium salt], the “IJFL (Inhibition of Joint Function Limitation) (% +/− SEM)” value in assay [1] (3 mg/kg PO BID) is reported as 3 +/− 156%; in assay [1] (10 mg/kg PO BID), 36 +/− 9%; in assay [1] (30 mg/kg PO BID, dose-response experiment), 63 +/− 8^a %; in assay [1] (30 mg/kg PO BID, single-dose-level experiment (last table row)), 60 +/− 8^a %. The “change in hind paw weight distribution” value in assay [1] (3 mg/kg PO b.i.d.) and in assay [1] (10 mg/kg PO b.i.d.) was “no statistically significant changes” in each case. Also, the “inhibition of change in hind paw weight distribution” value came to 38±14% in assay [1] (Day 7, dose-response experiment (FIG. 3), not significant); 47±8% in assay [1] (Day 7, first experiment (FIG. 2)); 50±10% in assay [1] (Day 14, dose-response experiment (FIG. 3)); 71±9% in assay [1] (Day 14, first experiment (FIG. 2)); 62±8% in assay [1] (Day 28, dose-response experiment (FIG. 3)); 60±8% in assay [1] (Day 28, first experiment (FIG. 2)). Besides, the “shift in weight bearing potential (joint pain) versus pre-dose” value was “did not significantly alter” in assay [2] (10 mg/kg PO single dose on Day 14), “only the change at the 4-hour post dose time point was statistically significant” in assay [2] (30 mg/kg PO single dose on Day 14) and “statistically significant” in assay [2] (100 mg/kg PO single dose on Day 14). Besides, the “Mean pain alleviation at 2 hours post administration (% ± SEM)” value in assay [2] (CI-1027 10 mg/kg PO alone, Day 14) stood at 20 ± 9%. Also, the “Inhibition of Pain (% versus control), MIA (acute)” value in assay [2] (single oral dose 30 mg/kg on Day 7, 4 hours post dose) turned out to be 67 ± 8%.
